# US9956262B2, “Use of a bacterium isolated from the genus Pseudoalteromonas, cyclolipopeptides and uses thereof” (priority 2013, dated 2018)
# Where two headings read alike, the source gives them in different places.
# What was measured:
# strain hCg-6 = experiment: Antibiotic sensitivity of the strain hCg-6; assay type: cell-based, Pseudoalteromonas hCg-6; set-up: key to Sensitive to: +: Positive; −: negative; f: slight reaction
# E. coli ML35 = experiment: MIC in liquid medium; assay type: cell-based; conditions: 24 h
# Protocol: (§1) The minimum inhibitory concentration (MIC) of the compounds nos. 1, 2, 3, 5, 7 and 8 was evaluated in a liquid medium following the procedure of Wiegand, Hilpert, and Hancock 2008. The spectrum of the target bacteria was extended to certain human pathogens such as the bacteria Salmonella enterica, a clinical strain of Escherichia coli having a beta-3-lactamase activity with an extended spectrum and Pseudomonas aeruginosa. After 24 h of incubation at an optimum temperature, the MICs are evaluated visually.
# V. splendidus LGP 32 = experiment: MIC in liquid medium; assay type: cell-based; conditions: 24 h
# Protocol: as §1
# A. caviae CIP 7616 = experiment: MIC in liquid medium; assay type: cell-based; conditions: 24 h
# Protocol: as §1
# E. coli SBS363 = experiment: MIC in liquid medium; assay type: cell-based; conditions: 24 h
# Protocol: as §1
# [1] = test system: Pseudomonas aeruginosa ATCC 27853; experiment: MIC in liquid medium; assay type: cell-based; conditions: 24 h
# Protocol: as §1
# S. enterica CIP 8297 = experiment: MIC in liquid medium; assay type: cell-based; conditions: 24 h
# Protocol: as §1
# Y. ruckeri ATCC 29473 = experiment: MIC in liquid medium; assay type: cell-based; conditions: 24 h
# Protocol: as §1
# [2] = test system: E. coli β résistante P7 (clinical strain); experiment: MIC in liquid medium; assay type: cell-based; conditions: 24 h
# Protocol: as §1
# [3] = test system: collection of strains of Vibrio splendidus isolated from oysters; experiment: MIC in liquid medium on a collection of Vibrio splendidus strains isolated from oysters; assay type: cell-based; conditions: collection of V. splendidus strains
# Protocol: The cyclolipopeptide no. 2 was tested on a collection of strains of Vibrio splendidus isolated from oysters. It has minimum inhibitory concentrations from 1.56 to 50 μM. The MICs were defined in a liquid medium by using the procedure of Wiegand, Hilpert, and Hancock 2008.
# V. harveyi ORM4 = experiment: MIC in liquid medium; assay type: cell-based; conditions: 24 h
# Protocol: as §1
# A. hydrophila CIP 7614 = experiment: MIC in liquid medium; assay type: cell-based; conditions: 24 h
# Protocol: as §1
compound,measurement,setting,value
CC1(C)S[C@@H]2[C@H](NC(=O)[C@H](N)c3ccc(O)cc3)C(=O)N2[C@H]1C(=O)O [amoxicillin],resistance/sensitivity of the strain hCg-6,strain hCg-6,sensitive
CO/N=C(\C(=O)N[C@@H]1C(=O)N2C(C(=O)[O-])=C(C[n+]3cccc4c3CCCC4)CS[C@H]12)c1csc(N)n1 [cefquinom],resistance/sensitivity of the strain hCg-6,strain hCg-6,sensitive
CC1=C(C(=O)O)N2C(=O)[C@@H](NC(=O)[C@H](N)c3ccccc3)[C@H]2SC1 [cephalexin],resistance/sensitivity of the strain hCg-6,strain hCg-6,resistant
CC=C1NC(=O)C(NC(=O)CC(O)CCCCCCC)C(O)CNC(=O)C(C(O)CN)NC(=O)C(C(O)CN)NC(=O)C(CCCNC(=N)N)NC(=O)C(CC(C)CC)NC(=O)C(CCN)NC1=O (stereo not shown) [cyclolipopeptide 2],MIC,E. coli ML35,35 µM
same,MIC,V. splendidus LGP 32,4.4 µM
same,MIC,A. caviae CIP 7616,17.6 µM
same,MIC,E. coli SBS363,0.1 µM
same,MIC,[1],35.2 µM
same,MIC,S. enterica CIP 8297,1.4 µM
same,MIC,Y. ruckeri ATCC 29473,1.1 µM
same,MIC,[2],8.8 µM
same,minimum inhibitory concentrations,[3],1.56 to 50 µM
CC=C1NC(=O)C(NC(=O)CCCCCCC)C(O)CNC(=O)C(C(O)CN)NC(=O)C(C(O)CN)NC(=O)C(CCCNC(=N)N)NC(=O)C(CC(C)CC)NC(=O)C(CCN)NC1=O (stereo not shown) [cyclolipopeptide 3],MIC,E. coli ML35,100 µM
same,MIC,V. splendidus LGP 32,50 µM
same,MIC,E. coli SBS363,50 µM
same,MIC,V. harveyi ORM4,50 µM
same,MIC,S. enterica CIP 8297,12.5 µM
same,MIC,Y. ruckeri ATCC 29473,50 µM
CC=C1NC(=O)C(NC(=O)CCCCCCCC)C(O)CNC(=O)C(C(O)CN)NC(=O)C(C(O)CN)NC(=O)C(CCCNC(=N)N)NC(=O)C(CC(C)CC)NC(=O)C(CCN)NC1=O (stereo not shown) [cyclolipopeptide 5],MIC,A. hydrophila CIP 7614,25 µM
same,MIC,E. coli ML35,50 µM
same,MIC,V. splendidus LGP 32,6.3 µM
same,MIC,E. coli SBS363,25 µM
same,MIC,V. harveyi ORM4,6.3 µM
same,MIC,S. enterica CIP 8297,6.3 µM
same,MIC,Y. ruckeri ATCC 29473,6.3 µM
CCN1CCN(c2cc3c(cc2F)c(=O)c(C(=O)O)cn3C2CC2)CC1 [enrofloxacin],resistance/sensitivity of the strain hCg-6,strain hCg-6,sensitive
CCn1cc(C(=O)O)c(=O)c2cc3c(cc21)OCO3 [oxolinic acid],resistance/sensitivity of the strain hCg-6,strain hCg-6,sensitive
Polymyxin B [reference compound],MIC,A. hydrophila CIP 7614,0.8 µM
same,MIC,E. coli ML35,3.1 µM
same,MIC,V. splendidus LGP 32,1.6 µM
same,MIC,A. caviae CIP 7616,3.1 µM
same,MIC,E. coli SBS363,0.2 µM
same,MIC,V. harveyi ORM4,25 µM
same,MIC,[1],1.6 µM
same,MIC,S. enterica CIP 8297,0.8 µM
same,MIC,Y. ruckeri ATCC 29473,0.4 µM
same,MIC,[2],1.6 µM
gentamycin,resistance/sensitivity of the strain hCg-6,strain hCg-6,sensitive
polymyxin,resistance/sensitivity of the strain hCg-6,strain hCg-6; 50 μg,resistant
same,Sensitive to,strain hCg-6; 300 ED,−
